Data as given in patent US11578080B2, “Thienopyrimidones” (Boehringer Ingelheim International GmbH, priority 2019, dated 2023).

Key:
[1] = Assay B: Microsomal clearance; format: in vitro ADME, human; settings: pooled liver microsomes, 1 μM test compound, 37° C.
Method: Assay B: Microsomal Clearance:
The metabolic degradation of the test compound is assayed at 37° C. with pooled liver microsomes. The final incubation volume of 100 μl per time point contains TRIS buffer pH 7.6 at RT (0.1 M), magnesium chloride (5 mM), microsomal protein (1 mg/ml) and the test compound at a final concentration of 1 μM.
Following a short preincubation period at 37° C., the reactions are initiated by addition of beta-nicotinamide adenine dinucleotide phosphate, reduced form (NADPH, 1 mM) and terminated by transferring an aliquot into solvent after different time points (0, 5, 15, 30, 60 min). Additionally, the NADPH-independent degradation is monitored in incubations without NADPH, terminated at the last time point. The [%] remaining test compound after NADPH independent incubation is reflected by the parameter c(control) (metabolic stability). The quenched incubations are pelleted by centrifugation (10000 g, 5 min).
An aliquot of the supernatant is assayed by LC-MS/MS for the amount of parent compound. The half-life (t½ INVITRO) is determined by the slope of the semilogarithmic plot of the concentration-time profile.
The intrinsic clearance (CL_[…]) is calculated by considering the amount of protein in the incubation: CL_[…] [μl/min/mg protein]=(Ln 2/(half-life [min]*protein content [mg/ml]))*1000 CL_[…]_INVIVO [ml/min/kg]=(CL_[…] [μL/min/mg protein]×MPPGL [mg protein/g liver]×liver factor [g/kg body weight])/1000 Qh [%]=CL [ml/min/kg]/hepatic blood flow [ml/min/kg])
(§1) Hepatocellularity, human: 120×10e6 cells/g liver
(§2) Liver factor, human: 25.7 g/kg bodyweight
(§3) Blood flow, human: 21 ml/(min×kg)

human TRPA1 ion channel = human TRPA1 ion channel (Homo sapiens (Human), UniProt O75762); assay: Assay A: TRPA1 assay (FLIPR calcium, AITC agonism, HEK293 over-expressing human TRPA1); format: cell-based; settings: HEK293 over-expressing human TRPA1, AITC 10 μM, FLIPRtetra; read-out: hTRPA1 IC50
Method: A human HEK293 cell line over-expressing the human TRPA1 ion channel (Perkin Elmer, Product No. AX-004-PCL) was used as a test system for compound efficacy and potency. Compound activity was determined by measuring the effect of compounds on intracellular calcium concentration induced by AITC (Allylisothiocyanat) agonism in a FLIPRtetra system (Molecular Devices).
The cells were obtained as frozen cells in cryo-vials and stored until use at −150° C. Cells were grown in culture medium (MEM/EBSS medium with 10% FCS and 0.4 mg/ML Geneticin). […] For sub-culturing cells were detached from flasks by Versene. At the day before the assay, cells were detached, washed twice with medium (MEM/EBSS medium with 10% FCS) and 20000 cells in 20 μl/well were seeded to Poly D-Lysin biocoated 384-well plates (black, clear bottom, Cat. 356697) from Corning. Plates were incubated for 24 hours at 37° C./5% CO2 before use in the assay.
The test compounds were dissolved in 100% DMSO at a concentration of 10 mM and in a first step diluted in DMSO to a concentration of 5 mM, followed by serial dilution steps in 100% DMSO. Dilution factor and number of dilution steps may vary according to needs. Typically 8 different concentrations by 1:5 dilutions were prepared, further intermediate dilutions (1:20) of the substances were carried out with HBSS/HEPES buffer (1×HEPES, Cat. 14065 from Gibco, 20 mM HEPES, Cat. 83264 from SIGMA, 0.1% BSA Cat. 11926 from Invitrogen, pH 7,4
At the assay day cells were washed 3× with assay puffer, 20 μL buffer remained in the wells after washing. 10 μL Ca6 kit (Cat. R8191 MolecularDevices) loading buffer in HBSS/HEPES was added to the cells and the plates were incubated with lid for 120 minutes at […]. 10 μL of compound or controls in HBSS/HEPES buffer/5% DMSO from the intermediate dilution plate were carefully added to the wells. […] Finally 10 μL of the agonist AITC 50 μM dissolved in HBSS/HEPES buffer/0.05% DMSO (final concentration 10 μM) was added to the wells followed by an additional read on the FLIPRtetra device for 10 minutes. The area under the signal curve (AUC) after AITC addition was used for IC50/% inhibition calculations
Data Evaluation and Calculation:
Each assay microtiter plate contained wells with vehicle (1% DMSO) controls instead of compound as controls for AITC induced luminescence (100% CTL; high controls) and wells with vehicle controls without AITC as controls for non-specific changes in luminescence (0% CTL; low controls).
The analysis of the data was performed by the calculation of the area under signal curve of the individual wells. Based on this values the % value for the measurement of each substance concentration was calculated (AUC(sample)−AUC(low))*100/(AUC(high)−AUC(low)) using MegaLab software (in house development). The IC50 values were calculated from the % control values using MegaLab software. Calculation: [y=(a−d)/(1+(x/c)^b)+d], a=low value, d=high value; x=cone M; c=IC50 M; b=hill; y=% ctrl

[2] = Assay C: Hepatocyte clearance; format: in vitro ADME, human; settings: hepatocyte suspension, 1 μM test compound
Method: Assay C: Hepatocyte Clearance
The metabolic degradation of the test compound is assayed in a hepatocyte suspension. Hepatocytes (cryopreserved) are incubated in. Dulbecco's modified eagle medium (supplemented with 3.5 μg glucagon/500 mL, 2.5 mg insulin/500 mL and 3.75 mg/500 mL hydrocortison) containing 5% or 50% species serum.
Following a 30 min preincubation in an incubator (37° C., 10% CO2) 5 μl of test compound solution (80 μM; from 2 mM in DMSO stock solution diluted 1:25 with medium) are added into 395 μl hepatocyte suspension (cell density in the range 0.25-5 Mio cells/mL depending on the species, typically 1 Mio cells/mL; final concentration of test compound 1 μM, final DMSO concentration 0.05%).
The cells are incubated for six hours (incubator, orbital shaker) and samples (25 μl) are taken at 0, 0.5, 1, 2, 4 and 6 hours. Samples are transferred into acetonitrile and pelleted by centrifugation (5 min). The supernatant is transferred to a new 96-deepwell plate, evaporated under nitrogen and resuspended.
Decline of parent compound is analyzed by HPLC-MS/MS
CLint is calculated as follows CL_[…]=Dose/AUC=(C0/CD)/(AUD+clast/k)×1000/60. CO: initial concentration in the incubation [μM], CD: cell density of vital cells [10e6 cells/mL], AUD: area under the data [μM×h], clast: concentration of last data point [μM], k: slope of the regression line for parent decline [h-1].
The calculated in vitro hepatic intrinsic clearance can be scaled up to the intrinsic in vivo hepatic Clearance and used to predict hepatic in vivo blood clearance (CL) by the use of a liver model (well stirred model). CL_[…]_INVIVO [ml/min/kg]=(CL_[…] [μL/min/10e6 cells]×hepatocellularity [10e6 cells/g liver]×liver factor [g/kg body weight])/1000 CL [ml/min/kg]=CL_[…]_INVIVO [ml/min/kg]×hepatic blood flow [ml/min/kg]/(CL_[…]_INVIVO [ml/min/kg]+hepatic blood flow [ml/min/kg]) Qh [%]=CL [ml/min/kg]/hepatic blood flow [ml/min/kg])
as §1, §2, §3

Sequence of human TRPA1 ion channel (O75762 whole entry): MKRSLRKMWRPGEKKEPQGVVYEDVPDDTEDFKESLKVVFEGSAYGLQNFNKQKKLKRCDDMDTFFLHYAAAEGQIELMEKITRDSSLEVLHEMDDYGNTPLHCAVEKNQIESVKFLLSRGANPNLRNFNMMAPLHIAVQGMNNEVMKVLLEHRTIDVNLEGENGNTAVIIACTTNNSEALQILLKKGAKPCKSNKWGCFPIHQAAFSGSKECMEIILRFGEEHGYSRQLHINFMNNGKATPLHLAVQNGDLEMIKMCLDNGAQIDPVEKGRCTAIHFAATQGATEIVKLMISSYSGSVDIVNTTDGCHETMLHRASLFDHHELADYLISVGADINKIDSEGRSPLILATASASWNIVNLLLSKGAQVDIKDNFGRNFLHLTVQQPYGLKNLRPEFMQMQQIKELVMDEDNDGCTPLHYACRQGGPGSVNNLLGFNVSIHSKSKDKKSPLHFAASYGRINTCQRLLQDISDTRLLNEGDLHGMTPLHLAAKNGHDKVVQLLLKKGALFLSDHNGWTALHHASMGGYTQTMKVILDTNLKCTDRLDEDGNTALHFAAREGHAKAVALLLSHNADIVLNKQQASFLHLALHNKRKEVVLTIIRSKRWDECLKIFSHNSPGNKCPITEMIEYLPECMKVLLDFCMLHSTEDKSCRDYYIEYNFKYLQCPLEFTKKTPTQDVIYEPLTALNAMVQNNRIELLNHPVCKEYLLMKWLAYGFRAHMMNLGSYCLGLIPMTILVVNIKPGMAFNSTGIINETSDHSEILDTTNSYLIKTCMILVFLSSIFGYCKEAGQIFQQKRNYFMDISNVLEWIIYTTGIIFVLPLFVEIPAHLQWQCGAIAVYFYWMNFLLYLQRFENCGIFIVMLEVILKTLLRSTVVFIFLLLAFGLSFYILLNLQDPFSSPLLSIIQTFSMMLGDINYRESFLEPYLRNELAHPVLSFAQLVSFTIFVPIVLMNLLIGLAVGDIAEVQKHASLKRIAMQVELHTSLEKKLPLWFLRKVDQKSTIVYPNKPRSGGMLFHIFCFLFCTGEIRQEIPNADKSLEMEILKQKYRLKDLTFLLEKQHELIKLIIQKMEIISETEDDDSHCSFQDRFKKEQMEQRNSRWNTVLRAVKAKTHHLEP

Row | Structure (SMILES) | human LM [% Qh] [1] [% Qh] | IC50 (human TRPA1 ion channel) [nM] | human Hepatocytes [% Qh] [2] [% Qh]
1 | Cc1c(C(N)=O)sc2ncn(Cc3nnn(C[C@H](O)c4ccc(Cl)cc4)n3)c(=O)c12 [Example 1, 3-({2-[(2R)-2-(4-chlorophenyl)-2-hydroxyethyl]-2H-1,2,3,4-tetrazol-5-yl}methyl)-5-methyl-4-oxo-3H,4H-thieno[2,3-d]pyrimidine-6-carboxamide] | <23 | 11 | 12
2 | Cc1c(C(N)=O)sc2ncn(Cc3nnn(C[C@H](O)c4ccc(Br)cc4)n3)c(=O)c12 [Example 2] | <23 | 12 | 13
3 | Cc1c(C(N)=O)sc2ncn(Cc3nnn(C[C@H](O)c4cc5cc(Cl)ccc5o4)n3)c(=O)c12 [Example 3] | <23 | 12 | 40
4 | Cc1c(C(N)=O)sc2ncn(Cc3nnn(C[C@H](O)c4ccc(Cl)s4)n3)c(=O)c12 [Example 4] | <23 | 12 | 7
5 | Cc1c(C(N)=O)sc2ncn(Cc3nnn(C[C@H](O)c4ccc(F)c(F)c4)n3)c(=O)c12 [Example 5] | <23 | 74 | –
6 | CN1CCc2c(sc3ncn(Cc4nnn(C[C@H](O)c5ccc(Cl)cc5)n4)c(=O)c23)C1=O [Example 7] | 36 | 16 | 26
7 | Cc1c(C(N)=O)sc2ncn(Cc3nnn(C[C@H](O)c4cc5ccc(Cl)cc5o4)n3)c(=O)c12 [Example 8] | 43 | 15 | 36
8 | Cc1ccc([C@@H](O)Cn2nnc(Cn3cnc4sc(C(N)=O)c(C)c4c3=O)n2)cc1 [Example 9] | <23 | 21 | 16
9 | Cc1c(C(N)=O)sc2ncn(Cc3nnn(C[C@H](O)c4ccc5c(c4)OCO5)n3)c(=O)c12 [Example 10] | <23 | 28 | 14
10 | Cc1c(C(N)=O)sc2ncn(Cc3nnn(C[C@H](O)c4cc5cc(F)ccc5o4)n3)c(=O)c12 [Example 11] | <23 | 25 | 28
11 | Cc1c(C(N)=O)sc2ncn(Cc3nnn(C[C@H](O)c4cc5ccc(F)cc5o4)n3)c(=O)c12 [Example 12] | <23 | 17 | 31
12 | CNC(=O)c1sc2ncn(Cc3nnn(C[C@H](O)c4ccc(Cl)cc4)n3)c(=O)c2c1C [Example 13] | <23 | 20 | 9
13 | CNC(=O)c1sc2ncn(Cc3nnn(C[C@H](O)c4ccc5c(c4)OCO5)n3)c(=O)c2c1C [Example 14] | <23 | 76 | 13
14 | CNC(=O)c1sc2ncn(Cc3nnn(C[C@H](O)c4ccc(C)cc4)n3)c(=O)c2c1C [Example 15] | <23 | 38 | 18
15 | CNC(=O)c1sc2ncn(Cc3nnn(C[C@H](O)c4ccc(Cl)s4)n3)c(=O)c2c1C [Example 16] | <23 | 37 | 17
16 | O=C1NCCc2c1sc1ncn(Cc3nnn(C[C@H](O)c4ccc(Cl)s4)n3)c(=O)c21 [Example 17] | <23 | 14 | 22
17 | O=C1NCCc2c1sc1ncn(Cc3nnn(C[C@H](O)c4cc5cc(Cl)ccc5o4)n3)c(=O)c21 [Example 18] | 32 | 14 | 48
18 | O=C1NCCc2c1sc1ncn(Cc3nnn(C[C@H](O)c4cc5cc(F)ccc5o4)n3)c(=O)c21 [Example 19] | <23 | 31 | 26
19 | Cc1ccc([C@@H](O)Cn2nnc(Cn3cnc4sc5c(c4c3=O)CCNC5=O)n2)cc1 [Example 20] | <23 | 14 | 28
20 | N#Cc1ccc([C@@H](O)Cn2nnc(Cn3cnc4sc5c(c4c3=O)CCNC5=O)n2)s1 [Example 21] | 27 | 80 | 5
21 | Cc1c(C(N)=O)sc2ncn(Cc3nnn(C[C@H](O)c4cc5ccccc5s4)n3)c(=O)c12 [Example 22] | 35 | 7 | 44
22 | NC(=O)c1sc2ncn(Cc3nnn(C[C@H](O)c4ccc(Cl)cc4)n3)c(=O)c2c1Cl [Example 23] | <23 | 6 | 12
